Experimental data: publication PMC3132048, “Treatment of experimental adjuvant arthritis with a novel folate receptor-targeted folic acid-aminopterin conjugate” (Arthritis Research & Therapy, 2011)

How the values were obtained:
[1] = molecular target: T1, FRα (FRα-expressing KB cells) (Homo sapiens, UniProt P15328); assay: Relative affinity assay: displacement of [3H]FA from KB cells; assay type: binding; details: 37°C, competitor of [3H]FA, inverse molar ratio to displace 50%
T1 construct: both KB cells and CHO-FRβ cells were used as the sources of FR; endogenous in cells; host or cells: KB cells
Description: The relative affinities of EC0746, AMT, and MTX were determined according to a previously established method except that both KB cells and CHO-FRβ cells were used as the sources of FR [33]. KB cells are a human cancer cell line known for elevated expression of FRα. CHO-FRβ cells were obtained from Manohar Ratnam, Department of Biochemistry and Cancer Biology, The University of Toledo (Toledo, OH, USA). This cell line was originally generated by stable integration and amplification of a human FRβ cDNA expression construct in CHO-K1 cells.

[2] = molecular target: T2, dihydrofolate reductase (DHFR) (Mus musculus, UniProt P00375); assay: Dihydrofolate reductase inhibition assay in RAW264.7 whole cell lysates; assay type: cell-based, murine; details: 100 nM plus 100-fold excess FA (10 μM), 2-hour pulse, 22-hour chase
T2 construct: endogenous in cells; host or cells: RAW264.7 cells (FR-positive subclone of ATCC TIB71)
T2 sequence (P00375 1-187): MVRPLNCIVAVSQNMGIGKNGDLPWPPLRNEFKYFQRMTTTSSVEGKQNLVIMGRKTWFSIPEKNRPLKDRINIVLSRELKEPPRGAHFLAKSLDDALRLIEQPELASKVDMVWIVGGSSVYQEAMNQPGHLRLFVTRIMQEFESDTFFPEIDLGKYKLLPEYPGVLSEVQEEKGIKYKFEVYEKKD
Description: RAW264.7 cells growing in FFRPMI medium in 10 cm cell culture dishes (BD Falcon, Lincoln Park, NJ, USA) were treated with EC0746 (100 nM), EC0746 (100 nM) plus 100-fold molar excess of FA (10 μM), or FA alone (10 μM). After a 2-hour exposure, the drug-containing media were replaced and the cells were allowed to incubate further for 22 hours in fresh FFRPMI medium (referred in the text as a 22-hour chase). Meanwhile, AMT and MTX were kept at 100 nM for the entire 24-hour incubation period. All cells were subsequently lysed in the radioimmunoprecipitation assay lysis buffer, and DHFR activities in the whole cell lysates were determined using a commercial DHFR assay kit (Sigma-Aldrich). This spectrophotometric assay monitors the enzymatic conversion of dihydrofolic acid to tetrahydrofolic acid by DHFR and the disappearance of the co-factor nicotinamide adenine dinucleotide phosphate at 340 nm. The results were normalized to the values of the untreated control cells.

RAW264.7 cells = assay type: cell-based, murine
Description: RAW264.7 cells in 96-well plates (3.5 × 10^4 cells/well) were treated with 10-fold serial dilutions of EC0746 (≤1 μM) in FFRPMI medium without and with 100-fold molar excess of FA. After a 2-hour exposure, the drug-containing media were replaced and the cells were allowed to incubate further for 70 hours (referred in the text as a 70-hour chase). In comparison, the cells were also treated continuously with AMT for 72 hours. Four hours prior to the end of incubation, LPS was added to the treated cells at a final concentration of 100 ng/ml. Then 100 μl culture supernatants were collected for TNFα analysis by ELISA. The cell viability was assessed by adding XTT to the remaining media for an additional 4 hours following the manufacturer's instructions. To evaluation of a cytostatic effect, RAW264.7 cells seeded at 1 × 10^6 cells/well in six-well plates were subjected to 2-hour exposure and a 70-hour chase with 0, 0.1, 10, and 1000 nM EC0746 without and with excess FA. At the end of the incubation (no LPS added), the surviving cells (that is, still viable cells) were recovered and redistributed in equal numbers in fresh medium for an additional 72 hours. The cell proliferation was again assessed by the XTT assay. All results were expressed as the percentage absorbance (minus background) relative to the untreated control cells.

[3] = tested on: cytokine/chemokine release by rat TG-macs; assay: Rat cytokine array analysis after LPS/IFNγ co-stimulation; assay type: cell-based; details: 100 nM, 2-hour pulse, 70-hour chase, LPS 5 μg/ml plus IFNγ 100 ng/ml last 24 hours
Description: This analysis was performed on rat TG-macs to compare EC0746 against AMT and MTX for their abilities to inhibit cytokine production after LPS/IFNγ co-stimulation. Using our standard condition of 2-hour pulse plus a 70-hour chase period, rat TG-macs (harvested the day before) were given vehicle (media only), EC0746 (100 nM), EC0746 (100 nM) plus 100-fold molar excess of FA (10 μM), or FA alone (10 μM). For unconjugated base drugs, 100 nM AMT and MTX were present continuously for the entire 72-hour incubation period. Twenty-four hours prior to the end of incubation, LPS (5 μg/ml) and IFNγ (100 ng/ml) were added to the cells to stimulate cytokine production. The presence of cytokines/chemokines in the culture media was detected using a rat cytokine antibody array kit (R&D Systems) capable of detecting 29 analytes in duplicate spots. The total pixel intensity for each spot in the array was quantitated using the NIH ImageJ software, subtracted from the background, and averaged for each analyte.

[4] = Plasma pharmacokinetics after single subcutaneous dose; assay type: in vivo, rat
Description: Female Lewis rats with jugular vein catheters (Harlan Sprague Dawley) were used to assess the plasma pharmacokinetics of EC0746 and unconjugated AMT. The animals were divided into two main groups, one given a single dose of EC0746 s.c. and the second a single dose of AMT s.c., both at 500 nmol/kg. Whole blood samples (300 μl) were collected from three animals per time point at the following time points: 1 minute, 10 minutes, 30 minutes, 1 hour, 2 hours, 3 hours, 4 hours, and 8 hours after injection. The blood samples were placed into anticoagulant tubes containing 1.7 mg/ml K3EDTA and 0.35 mg/ml N-maleoyl-β-alanine (0.35 mg/ml) in a 0.15% acetic acid solution. Plasma samples were obtained by centrifugation for 3 minutes at ~2,000 × g and stored at -80°C. The amounts of EC0746 and AMT in the plasma and the two primary metabolites of EC0746 (AMT and AMT hydrazide) were determined by liquid chromatography/mass spectrometry/mass spectrometry.

T1 sequence (P15328 25-257): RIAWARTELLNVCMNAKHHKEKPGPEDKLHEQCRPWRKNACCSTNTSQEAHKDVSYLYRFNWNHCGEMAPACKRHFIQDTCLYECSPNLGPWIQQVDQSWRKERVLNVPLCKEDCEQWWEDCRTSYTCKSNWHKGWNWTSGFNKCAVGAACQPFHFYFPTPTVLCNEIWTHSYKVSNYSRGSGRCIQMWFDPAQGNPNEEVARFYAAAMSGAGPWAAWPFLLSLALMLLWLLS

Nc1nc(N)c2nc(CNc3ccc(C(=O)N[C@@H](CCC(=O)NNC(=O)OCCSSC[C@H](NC(=O)[C@H](CCC(=O)NC[C@H](O)[C@@H](O)[C@H](O)[C@H](O)CO)NC(=O)[C@H](CCC(=O)O)NC(=O)[C@H](CCC(=O)NC[C@H](O)[C@@H](O)[C@H](O)[C@H](O)CO)NC(=O)[C@H](CCC(=O)O)NC(=O)[C@H](CCC(=O)NC[C@H](O)[C@@H](O)[C@H](O)[C@H](O)CO)NC(=O)CC[C@H](NC(=O)c4ccc(NCc5cnc6nc(N)[nH]c(=O)c6n5)cc4)C(=O)O)C(=O)O)C(=O)O)cc3)cnc2n1 [EC0746]
Relative affinity value (FA = 1) [1]: 0.50 | DHFR inhibitory activity with excess FA [2]: blocked by excess FA | IC50 (RAW264.7 cells; 2-hour pulse, 70-hour chase, read-out: Relative 50% inhibitory concentration, inhibition of cell proliferation (XTT)): ~300 pM | Antiproliferative effect competitive in presence of excess FA (RAW264.7 cells; 100-fold molar excess FA): 100% | Proliferation of surviving cells redispersed into fresh medium (RAW264.7 cells; additional 72-hour incubation after 2-hour pulse plus 70-hour chase): could no longer divide | Maximum growth inhibition (RAW264.7 cells; concentrations ≥1 nM, 2-hour pulse, 70-hour chase): ~ 50% | Number of released cytokines/chemokines (of ~19) showing FR-specific inhibition [3]: 11 | Active drug exposure/release (AMT plus AMT hydrazide) detected in plasma, based on AUC ([4]; EC0746 500 nmol/kg s.c., 8-hour collection period): ~ 18% | Area under the curve ([4]; after single s.c. dose of EC0746 500 nmol/kg, 8-hour collection, analyte = label): 32.5 nmol·min/mL | Elimination half-life ([4]; after single s.c. dose of EC0746 500 nmol/kg, analyte = label): ~ 35 minutes
